The compounds below were run against T1, HDAC6 enzyme (Homo sapiens, UniProt Q9UBN7) (assay: HDAC6 enzyme inhibitory activity (HDAC-Glo I/II Assay kit)). Details: 10 μM; wells without enzyme = 100% inhibition.
T1 construct: transducing full length HDAC6 gene into Sf-9 insect cells; GST; purchased SignalChem; host or cells: Sf-9 insect cells
T1 sequence (Q9UBN7 1-1215): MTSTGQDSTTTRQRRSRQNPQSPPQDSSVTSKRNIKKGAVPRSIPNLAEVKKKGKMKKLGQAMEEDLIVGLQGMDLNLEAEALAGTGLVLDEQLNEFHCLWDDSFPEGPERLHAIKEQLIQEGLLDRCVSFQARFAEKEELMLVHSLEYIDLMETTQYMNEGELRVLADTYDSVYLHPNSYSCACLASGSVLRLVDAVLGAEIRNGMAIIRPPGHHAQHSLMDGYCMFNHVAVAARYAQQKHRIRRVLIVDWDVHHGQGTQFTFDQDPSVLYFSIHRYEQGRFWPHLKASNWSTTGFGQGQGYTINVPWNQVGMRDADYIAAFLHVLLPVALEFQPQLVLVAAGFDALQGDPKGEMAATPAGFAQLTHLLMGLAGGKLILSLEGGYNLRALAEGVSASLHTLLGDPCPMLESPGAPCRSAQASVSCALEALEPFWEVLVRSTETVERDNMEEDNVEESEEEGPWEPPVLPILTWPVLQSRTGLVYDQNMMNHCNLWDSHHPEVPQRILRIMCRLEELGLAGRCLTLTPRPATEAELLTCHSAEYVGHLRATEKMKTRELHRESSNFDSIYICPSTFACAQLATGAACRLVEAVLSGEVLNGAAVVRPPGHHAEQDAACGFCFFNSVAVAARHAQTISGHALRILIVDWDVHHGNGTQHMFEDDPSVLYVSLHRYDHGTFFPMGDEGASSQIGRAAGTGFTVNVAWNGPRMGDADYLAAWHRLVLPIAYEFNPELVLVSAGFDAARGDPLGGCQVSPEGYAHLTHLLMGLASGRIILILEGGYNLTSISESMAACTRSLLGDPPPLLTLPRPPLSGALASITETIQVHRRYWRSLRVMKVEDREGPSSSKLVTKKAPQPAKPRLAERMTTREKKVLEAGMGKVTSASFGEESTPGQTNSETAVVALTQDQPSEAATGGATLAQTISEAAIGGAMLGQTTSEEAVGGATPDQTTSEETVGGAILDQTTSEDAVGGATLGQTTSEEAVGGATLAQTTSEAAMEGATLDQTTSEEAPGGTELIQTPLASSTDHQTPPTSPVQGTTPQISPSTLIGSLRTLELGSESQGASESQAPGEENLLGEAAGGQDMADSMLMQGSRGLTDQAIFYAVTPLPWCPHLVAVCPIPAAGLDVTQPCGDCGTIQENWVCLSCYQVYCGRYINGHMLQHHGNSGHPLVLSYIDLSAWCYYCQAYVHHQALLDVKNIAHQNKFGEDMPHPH
Type: biochemical
In short: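 Full-length human HDAC6 (GST-purified, Sf-9 expressed) preincubated with compound 60 min at room temperature in Tris-HCl pH 7.5 buffer with MgCl2, KCl, NaCl, glutathione, Tween-20. HDAC-Glo I/II substrate-developer then added, 20 min room temperature, luminescence read. Inhibition relative to no-enzyme wells as 100%.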

HDAC6 inhibitory rate (%) (10 μM) | SMILES
100% | O=C(N[C@@H]1CCCC[C@H]1N1Cc2ccc(-c3nnc(C(F)F)o3)cc2C1=O)C1CC12CCC2 (stereo partly drawn) [Example 119, N-((1R,2R)-2-(6-(5-(difluoromethyl)-1,3,4-oxadiazol-2-yl)-1-oxo-1,3-dihydro-2H-isoindol-2-yl)cyclohexyl)spiro[2.3]hexane-1-carboxamide (optical isomer)]
100% | O=C(N[C@@H]1CCCC[C@H]1N1Cc2ccc(-c3nnc(C(F)F)o3)cc2C1=O)C1CC1(F)F (stereo partly drawn) [Example 121, N-((1R,2R)-2-(6-(5-(difluoromethyl)-1,3,4-oxadiazol-2-yl)-1-oxo-1,3-dihydro-2H-isoindol-2-yl)cyclohexyl)-2,2-difluorocyclopropanecarboxamide (optical isomer)]

Same assay, conditions: 10 μM; wells without enzyme = 100% inhibition; read-out: HDAC6 inhibitory rate (%) (10 μM)

SMILES | inhibition at 10 µM
O=C1c2cc(-c3nnc(C(F)F)o3)ccc2CN1c1ccccc1Br [Example 112, 2-(2-bromophenyl)-6-(5-(difluoromethyl)-1,3,4-oxadiazol-2-yl)isoindolin-1-one] | 95%
C[C@H](C1CC1)N1Cc2ccc(-c3nnc(C(F)F)o3)cc2C1=O [Example 115, 2-((1R)-1-cyclopropylethyl)-6-(5-(difluoromethyl)-1,3,4-oxadiazol-2-yl)isoindolin-1-one] | 96%
C[C@@H](C1CC1)N1Cc2ccc(-c3nnc(C(F)F)o3)cc2C1=O [Example 116, 2-((1S)-1-cyclopropylethyl)-6-(5-(difluoromethyl)-1,3,4-oxadiazol-2-yl)isoindolin-1-one] | 98%
CCCCO[C@H]1CC[C@H](N2Cc3ccc(-c4nnc(C(F)F)o4)cc3C2=O)CC1 [Example 117, 2-(trans-4-butoxycyclohexyl)-6-(5-(difluoromethyl)-1,3,4-oxadiazol-2-yl)isoindolin-1-one] | 96%
O=C1c2cc(-c3nnc(C(F)F)o3)ccc2CN1C1CCOCC1 [Example 122, 6-(5-(difluoromethyl)-1,3,4-oxadiazol-2-yl)-2-(tetrahydro-2H-pyran-4-yl)isoindolin-1-one] | 95%
O=C1CCCN1[C@@H]1CCCC[C@H]1N1Cc2c(F)cc(-c3nnc(C(F)F)o3)cc2C1=O [Example 124, 6-(5-(difluoromethyl)-1,3,4-oxadiazol-2-yl)-4-fluoro-2-((1R,2R)-2-(2-oxopyrrolidin-1-yl)cyclohexyl)isoindolin-1-one] | 99%
CC(C)(C)OC(=O)N1CC[C@@H](N2Cc3ccc(-c4nnc(C(F)F)o4)cc3C2=O)[C@@H](c2ccccc2)C1 [Example 125, tert-butyl (3S,4R)-4-(6-(5-(difluoromethyl)-1,3,4-oxadiazol-2-yl)-1-oxo-1,3-dihydro-2H-isoindol-2-yl)-3-phenylpiperidine-1-carboxylate] | 98%
O=C1c2cc(-c3nnc(C(F)F)o3)ccc2CN1[C@@H]1CCNC[C@@H]1c1ccccc1 [Example 126, 6-(5-(difluoromethyl)-1,3,4-oxadiazol-2-yl)-2-((3S,4R)-3-phenylpiperidin-4-yl)isoindolin-1-one] | 100%
CC(=O)N1CC[C@@H](N2Cc3ccc(-c4nnc(C(F)F)o4)cc3C2=O)[C@@H](c2ccccc2)C1 [Example 127, 2-((3S,4R)-1-acetyl-3-phenylpiperidin-4-yl)-6-(5-(difluoromethyl)-1,3,4-oxadiazol-2-yl)isoindolin-1-one] | 100%
COC(=O)N1CC[C@@H](N2Cc3ccc(-c4nnc(C(F)F)o4)cc3C2=O)[C@@H](c2ccccc2)C1 [Example 128, methyl (3S,4R)-4-(6-(5-(difluoromethyl)-1,3,4-oxadiazol-2-yl)-1-oxo-1,3-dihydro-2H-isoindol-2-yl)-3-phenylpiperidine-1-carboxylate] | 100%
O=C1c2cc(-c3nnc(C(F)F)o3)ccc2CN1c1ccccc1-c1ccccc1 [Example 129, 2-(biphenyl-2-yl)-6-(5-(difluoromethyl)-1,3,4-oxadiazol-2-yl)isoindolin-1-one] | 100%
CCOC(=O)N1CCC(N2Cc3ccc(-c4nnc(C(F)F)o4)cc3C2=O)CC1 [Example 130, ethyl 4-(6-(5-(difluoromethyl)-1,3,4-oxadiazol-2-yl)-1-oxo-1,3-dihydro-2H-isoindol-2-yl)piperidine-1-carboxylate] | 93%
O=C1c2cc(-c3nnc(C(F)F)o3)ccc2CN1c1ccccc1-c1ccc(C(F)(F)F)cc1 [Example 133, 6-(5-(difluoromethyl)-1,3,4-oxadiazol-2-yl)-2-(4′-(trifluoromethyl)biphenyl-2-yl)isoindolin-1-one] | 93%

The next lines start with the values.

inhibition at 10 µM | SMILES
100% | O=C1c2cc(-c3nnc(C(F)F)o3)ccc2CN1[C@@H]1CCCC[C@H]1NC(=O)C1(c2ccc(F)cc2)CC1 [Example 108, N-((1R,2R)-2-(6-(5-(difluoromethyl)-1,3,4-oxadiazol-2-yl)-1-oxo-1,3-dihydro-2H-isoindol-2-yl)cyclohexyl)-1-(4-fluorophenyl)cyclopropanecarboxamide]
97% | O=C1c2cc(-c3nnc(C(F)F)o3)ccc2CN1[C@@H]1CCCC[C@H]1NC(=O)C1(c2ccc(F)cc2)CCC1 [Example 109, N-((1R,2R)-2-(6-(5-(difluoromethyl)-1,3,4-oxadiazol-2-yl)-1-oxo-1,3-dihydro-2H-isoindol-2-yl)cyclohexyl)-1-(4-fluorophenyl)cyclobutanecarboxamide]
98% | O=C(CC1CCC1)N[C@@H]1CCCC[C@H]1N1Cc2ccc(-c3nnc(C(F)F)o3)cc2C1=O [Example 110, 2-cyclobutyl-N-((1R,2R)-2-(6-(5-(difluoromethyl)-1,3,4-oxadiazol-2-yl)-1-oxo-1,3-dihydro-2H-isoindol-2-yl)cyclohexyl)acetamide]
102% | O=C(N[C@@H]1CCCC[C@H]1N1Cc2ccc(-c3nnc(C(F)F)o3)cc2C1=O)[C@H]1CCCO1 [Example 113, (2R)-N-((1R,2R)-2-(6-(5-(difluoromethyl)-1,3,4-oxadiazol-2-yl)-1-oxo-1,3-dihydro-2H-isoindol-2-yl)cyclohexyl)tetrahydrofuran-2-carboxamide]
100% | O=C(N[C@@H]1CCCC[C@H]1N1Cc2ccc(-c3nnc(C(F)F)o3)cc2C1=O)[C@H]1CCOC1 [Example 114, (3S)-N-((1R,2R)-2-(6-(5-(difluoromethyl)-1,3,4-oxadiazol-2-yl)-1-oxo-1,3-dihydro-2H-isoindol-2-yl)cyclohexyl)tetrahydrofuran-3-carboxamide]
101% | O=C1c2cc(-c3nnc(C(F)F)o3)ccc2CN1[C@@H]1CCCC[C@H]1n1ccnn1 [Example 123]
99% | O=C(N[C@@H]1CCCC[C@H]1N1Cc2ccc(-c3nnc(C(F)F)o3)cc2C1=O)OCC(F)F [Example 131, 2,2-difluoroethyl ((1R,2R)-2-(6-(5-(difluoromethyl)-1,3,4-oxadiazol-2-yl)-1-oxo-1,3-dihydro-2H-isoindol-2-yl)cyclohexyl)carbamate]
94% | O=C(N[C@@H]1CCCC[C@H]1N1Cc2ccc(-c3nnc(C(F)F)o3)cc2C1=O)OCCC(F)(F)F [Example 132, 3,3,3-trifluoropropyl ((1R,2R)-2-(6-(5-(difluoromethyl)-1,3,4-oxadiazol-2-yl)-1-oxo-1,3-dihydro-2H-isoindol-2-yl)cyclohexyl)carbamate]
